Patent US20200261391A1, “METHODS OF REDUCING THE RISK OF A CARDIOVASCULAR EVENT IN A STATIN-TREATED SUBJECT BY INCREASING SERUM AND PLASMA EPA AND DPA LEVELS” (Amarin Pharmaceuticals Ireland Limited, priority 2019, published 2020)

Test system: patients with elevated triglyceride levels on statin therapy
Assay: REDUCE-IT endpoints by EPA/AA ratio tertile in the icosapent ethyl group compared to placebo
Type: in vivo, human
Conditions: EPA/AA ≤0.373068; on-treatment average of year 1, year 2, last visit

CC/C=C\C/C=C\C/C=C\C/C=C\C/C=C\CCCC(=O)OCC [icosapent ethyl, eicosapentaenoic acid ethyl ester]
HR (95% CI), Primary Endpoint, Lowest EPA/AA ratio tertile vs Placebo: 0.83 (0.71, 0.97)
